Data reported in EP3529257B1, “[…] METHODS OF USE THEREOF” (Sage Therapeutics, Inc., priority 2016, dated 2018).

Tests used:
[1] = target: T1, GlunN1/GluN2A glutamate receptors (Homo sapiens, UniProt Q05586+Q12879); assay: Whole-cell patch clamp of mammalian cells (Ionworks Barracuda), positive allosteric modulation (PAM) of NMDA receptor, 2A; assay type: cell-based; conditions: for Emax: HEK293, HEK293 cells; for Emax / Avg Emax 2A (%): % activation of current elicited with EC20 L-glutamate and 30 µM glycine; for Avg Emax 2A (%) / EC50: HEK293 cells; for EC50: co-application with EC20 L-glutamate and 30 µM glycine, 8-point concentration-response
T1 construct: expressed in transfected cells
Method: (§1) The measurements were perfomed using Ion Works Barracuda platform following this procedure: • Electrophysiological Procedures: • a) Intracellular solution (mM): 50 mM CsCl, 90 mM CsF, 2 mM MgCl2, 5 mM EGTA, 10 mM HEPES. Adjust to pH 7.2 with CsOH. • b) Extracellular solution, HB-PS (composition in mM): NaCl, 137; KCl, 1.0; CaCl2, 5; HEPES, 10; Glucose, 10; pH adjusted to 7.4 with NaOH (refrigerated until use). • c) Holding potential: -70 mV, potential during agonist/PAM application: -40 mV. • Recording procedure: • a) Extracellular buffer will be loaded into the PPC plate wells (11 µL per well). Cell suspension will be pipetted into the wells (9 µL per well) of the PPC planar electrode. • b) Whole-cell recording configuration will be established via patch perforation with membrane currents recorded by on-board patch clamp amplifiers. • c) Two recordings (scans) will be performed. First, during pre-application of test article alone (duration of pre-application - 5 min) and second, during test articles and agonist (EC20 L-glutamate and 30 µM glycine) co-application to detect positive modulatory effects of the test article.
(§2) Test Article Administration: The first pre-application will consist of the addition of 20 µL of 2X concentrated test article solution and, second, of 20 µL of 1X concentrated test article and agonist at 10 µL/s (2 second total application time).
(§3) PAM concentration-response data will be fitted to an equation of the form: % Activation = % L−glutamate EC20 + {(%MAX−%L−glutamateEC20)/[1+(([Test]/; EC50))^N]}, [formula] where [Test] will be the concentration of PAM (test article), EC50 will be the concentration of PAM producing half-maximal activation, N will be the Hill coefficient, % L-glutamate EC20 will be the percentage of the current Elicited with L-glutamate EC20, % MAX is the percentage of the current activated with the highest dose of PAM co-admitted with L-glutamate EC20 and % Activation will be the percentage of the current elicited with L-glutamate EC10-30 at each PAM concentration.
(§4) The maximal amplitude of the evoked currents are measured and defined as Peak Current Amplitude (PCA).

[2] = target: T2, GluN2B glutamate receptors (Homo sapiens, UniProt Q05586+Q13224); assay: Whole-cell patch clamp of mammalian cells (Ionworks Barracuda), positive allosteric modulation (PAM) of NMDA receptor, 2B; assay type: cell-based; conditions: for Emax / Avg Emax 2B (%): % activation of current elicited with EC20 L-glutamate and 30 µM glycine; for EC50: co-application with EC20 L-glutamate and 30 µM glycine, 8-point concentration-response
T2 construct: expressed in transfected cells; host or cells: mammalian cells (line not described for GluN2B)
Method: as §1, §2, §3, §4

T1 sequence (Q12879 23-1464, other chains not shown): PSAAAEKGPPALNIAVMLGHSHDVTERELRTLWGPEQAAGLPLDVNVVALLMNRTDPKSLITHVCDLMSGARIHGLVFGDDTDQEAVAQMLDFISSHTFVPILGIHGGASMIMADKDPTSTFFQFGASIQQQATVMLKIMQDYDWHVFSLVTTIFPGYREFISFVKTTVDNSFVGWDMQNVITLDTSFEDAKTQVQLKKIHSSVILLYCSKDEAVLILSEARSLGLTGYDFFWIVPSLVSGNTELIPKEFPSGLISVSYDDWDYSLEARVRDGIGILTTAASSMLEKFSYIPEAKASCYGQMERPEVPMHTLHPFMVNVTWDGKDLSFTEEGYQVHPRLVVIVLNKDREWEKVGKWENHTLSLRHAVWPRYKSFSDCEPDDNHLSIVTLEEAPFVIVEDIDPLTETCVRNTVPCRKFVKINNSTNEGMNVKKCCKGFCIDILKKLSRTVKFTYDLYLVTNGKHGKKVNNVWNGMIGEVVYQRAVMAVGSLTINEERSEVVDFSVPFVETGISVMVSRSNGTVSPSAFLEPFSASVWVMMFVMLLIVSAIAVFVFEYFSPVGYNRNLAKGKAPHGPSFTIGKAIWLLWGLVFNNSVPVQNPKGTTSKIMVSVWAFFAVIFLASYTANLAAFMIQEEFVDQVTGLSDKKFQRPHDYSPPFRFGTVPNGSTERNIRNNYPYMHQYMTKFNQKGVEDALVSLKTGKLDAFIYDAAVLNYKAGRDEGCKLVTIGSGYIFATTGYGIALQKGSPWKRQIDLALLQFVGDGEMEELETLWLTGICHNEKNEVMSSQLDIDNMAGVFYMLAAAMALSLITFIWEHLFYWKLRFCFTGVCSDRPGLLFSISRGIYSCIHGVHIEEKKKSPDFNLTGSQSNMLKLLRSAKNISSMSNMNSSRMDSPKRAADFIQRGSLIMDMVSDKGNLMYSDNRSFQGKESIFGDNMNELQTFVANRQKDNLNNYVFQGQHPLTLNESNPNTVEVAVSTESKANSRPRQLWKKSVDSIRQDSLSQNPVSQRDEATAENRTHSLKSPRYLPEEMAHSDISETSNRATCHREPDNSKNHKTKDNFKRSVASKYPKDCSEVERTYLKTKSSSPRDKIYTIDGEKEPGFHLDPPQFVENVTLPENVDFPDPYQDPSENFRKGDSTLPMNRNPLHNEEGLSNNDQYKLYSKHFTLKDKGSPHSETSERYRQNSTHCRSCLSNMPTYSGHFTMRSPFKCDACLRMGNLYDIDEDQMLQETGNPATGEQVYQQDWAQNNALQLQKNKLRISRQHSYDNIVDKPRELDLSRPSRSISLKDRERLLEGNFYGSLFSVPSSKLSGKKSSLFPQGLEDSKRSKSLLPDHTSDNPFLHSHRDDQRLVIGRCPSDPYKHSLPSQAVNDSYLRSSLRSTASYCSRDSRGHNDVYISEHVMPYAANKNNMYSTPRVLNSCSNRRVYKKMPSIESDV
T2 sequence (Q13224 27-1484, other chains not shown): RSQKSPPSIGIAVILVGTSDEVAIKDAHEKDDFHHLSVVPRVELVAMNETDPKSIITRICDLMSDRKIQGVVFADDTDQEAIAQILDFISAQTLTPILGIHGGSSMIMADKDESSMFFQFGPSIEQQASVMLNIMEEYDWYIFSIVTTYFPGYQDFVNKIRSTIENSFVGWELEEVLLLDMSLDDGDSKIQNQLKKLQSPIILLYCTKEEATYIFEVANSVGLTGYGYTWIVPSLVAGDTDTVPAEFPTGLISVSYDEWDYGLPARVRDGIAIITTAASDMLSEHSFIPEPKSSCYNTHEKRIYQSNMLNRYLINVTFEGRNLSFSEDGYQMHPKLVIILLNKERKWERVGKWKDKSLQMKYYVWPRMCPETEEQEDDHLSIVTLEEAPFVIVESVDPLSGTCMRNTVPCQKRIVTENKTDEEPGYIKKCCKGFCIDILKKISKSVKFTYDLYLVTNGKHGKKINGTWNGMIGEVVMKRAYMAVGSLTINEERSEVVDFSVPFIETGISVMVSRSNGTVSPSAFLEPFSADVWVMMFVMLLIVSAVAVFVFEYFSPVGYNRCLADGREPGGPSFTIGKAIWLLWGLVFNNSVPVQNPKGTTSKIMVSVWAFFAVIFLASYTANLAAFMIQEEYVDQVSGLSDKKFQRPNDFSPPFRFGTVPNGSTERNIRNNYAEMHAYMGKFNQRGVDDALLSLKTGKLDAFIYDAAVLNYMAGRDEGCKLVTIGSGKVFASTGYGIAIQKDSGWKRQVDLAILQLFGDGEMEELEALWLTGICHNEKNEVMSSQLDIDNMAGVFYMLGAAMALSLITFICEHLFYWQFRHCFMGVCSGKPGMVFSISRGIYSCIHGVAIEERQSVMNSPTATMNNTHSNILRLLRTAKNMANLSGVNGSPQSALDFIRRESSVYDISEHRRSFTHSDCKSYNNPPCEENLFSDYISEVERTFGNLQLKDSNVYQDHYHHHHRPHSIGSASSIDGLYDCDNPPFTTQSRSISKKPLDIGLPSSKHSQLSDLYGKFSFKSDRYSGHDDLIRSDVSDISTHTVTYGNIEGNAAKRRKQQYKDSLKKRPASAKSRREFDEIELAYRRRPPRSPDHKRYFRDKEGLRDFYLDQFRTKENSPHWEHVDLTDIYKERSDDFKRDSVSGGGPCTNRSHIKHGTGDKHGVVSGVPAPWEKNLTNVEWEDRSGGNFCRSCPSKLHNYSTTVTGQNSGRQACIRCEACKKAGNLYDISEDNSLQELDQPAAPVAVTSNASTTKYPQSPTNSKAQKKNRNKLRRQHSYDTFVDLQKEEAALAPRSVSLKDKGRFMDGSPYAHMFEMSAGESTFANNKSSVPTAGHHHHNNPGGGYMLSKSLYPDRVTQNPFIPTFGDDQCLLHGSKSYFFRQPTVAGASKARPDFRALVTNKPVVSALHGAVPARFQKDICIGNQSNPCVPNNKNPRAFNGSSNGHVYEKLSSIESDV

## CCC1(O)CCC2(C)C(=CCC3C2CCC2(C)C(C(C)CCC(O)c4ccccc4F)CCC32)C1 (single isomer, unassigned) [Compound 7281]
[1]
  Emax: 98.1%
[2]
  Emax: 126%

## CCC1(O)CCC2C(=CCC3C2CCC2(C)C(C(C)CCC4(O)CCOC4)CCC32)C1 (single isomer, unassigned) [Compound 8602]
[1]
  Emax: 272%
[2]
  Emax: 262%

## CC(C)[C@@H](O)CC[C@@H](C)[C@H]1CC[C@H]2[C@@H]3CC=C4C[C@](O)(C(F)(F)F)CC[C@]4(C)[C@H]3CC[C@]12C [Compound 1-A]
[1]
  Emax: 275%
[2]
  Emax: 250%

## CC(C)[C@H](O)CC[C@@H](C)[C@H]1CC[C@H]2[C@@H]3CC=C4C[C@](O)(C(F)(F)F)CC[C@]4(C)[C@H]3CC[C@]12C [Compound 1-B]
[1]
  Emax: 262%
[2]
  Emax: 285%

## CC(C)[C@@H](O)CC[C@@H](C)[C@H]1CC[C@H]2[C@@H]3CC[C@H]4C[C@@](C)(O)CC[C@@H]4[C@H]3CC[C@]12C [Compound 1A75]
[1]
  Avg Emax 2A (%): 457.2%
  EC50: 671 nM
[2]
  Avg Emax 2B (%): 308.0%
  EC50: 440 nM

## CC(C)[C@H](O)CC[C@@H](C)[C@H]1CC[C@H]2[C@@H]3CC[C@H]4C[C@@](C)(O)CC[C@@H]4[C@H]3CC[C@]12C [Compound 1B75]
[1]
  Avg Emax 2A (%): 278.8%
  EC50: 165 nM
[2]
  Avg Emax 2B (%): 233.1%
  EC50: 183 nM

## C[C@H](O)CC[C@@H](C)[C@H]1CC[C@H]2[C@@H]3CC[C@H]4C[C@](O)(C(F)(F)F)CC[C@]4(C)[C@H]3CC[C@]12C [Compound 6]
[1]
  Emax: 137%
[2]
  Emax: 163%

## C[C@H](CCC1(O)CCC(F)(F)CC1)[C@H]1CC[C@H]2[C@@H]3CC[C@H]4C[C@](O)(C(F)(F)F)CC[C@]4(C)[C@H]3CC[C@]12C [Compound 8]
[1]
  Emax: 402%
[2]
  Emax: 322%

## C[C@H](CCC1(O)CCOC1)[C@H]1CC[C@H]2[C@@H]3CC=C4C[C@](O)(C(F)(F)F)CC[C@]4(C)[C@H]3CC[C@]12C (stereo partly shown) [Compound 10]
[1]
  Emax: 632%
[2]
  Emax: 362%

## C[C@H](CCC1(O)CCOCC1)[C@H]1CC[C@H]2[C@@H]3CC[C@H]4C[C@](O)(C(F)(F)F)CC[C@]4(C)[C@H]3CC[C@]12C [Compound 11]
[1]
  Avg Emax 2A (%): 151.2%
  EC50: 117 nM
[2]
  Avg Emax 2B (%): 157.4%
  EC50: 104 nM

## C[C@H](CCC[C@@H](C)O)[C@H]1CC[C@H]2[C@@H]3CC[C@H]4C[C@](O)(C(F)(F)F)CC[C@]4(C)[C@H]3CC[C@]12C [Compound 112]
[1]
  Avg Emax 2A (%): 92.6%
  EC50: 480 nM
[2]
  Avg Emax 2B (%): 150.8%
  EC50: 478 nM

## C[C@H](CCC(O)(c1ccccc1)C(F)(F)F)[C@H]1CC[C@H]2[C@@H]3CC=C4C[C@@](C)(O)CC[C@]4(C)[C@H]3CC[C@]12C (stereo partly shown) [Compound 559]
[1]
  Avg Emax 2A (%): 204.3%
  EC50: 1570 nM
[2]
  Avg Emax 2B (%): 373.2%
  EC50: 1560 nM

## C[C@H](CCC(O)Cc1ccccc1)[C@H]1CC[C@H]2[C@@H]3CC=C4C[C@@](C)(O)CC[C@]4(C)[C@H]3CC[C@]12C (stereo partly shown) [Compound 660]
[1]
  Avg Emax 2A (%): 195.2%
  EC50: 701 nM
[2]
  Avg Emax 2B (%): 281.1%
  EC50: 517 nM

## C[C@H](O)CCC[C@@H](C)[C@H]1CC[C@H]2[C@@H]3CC[C@H]4C[C@](O)(C(F)(F)F)CC[C@]4(C)[C@H]3CC[C@]12C [Compound 2113]
[1]
  Avg Emax 2A (%): 402.7%
  EC50: 380 nM
[2]
  Avg Emax 2B (%): 285.0%
  EC50: 413 nM

## C[C@H](CC[C@H](O)C(C)(C)C)[C@H]1CC[C@H]2[C@@H]3CC[C@H]4C[C@](O)(C(F)(F)F)CC[C@]4(C)[C@H]3CC[C@]12C [Compound 2184]
[1]
  Emax: 234%
[2]
  Emax: 258%

## C[C@H](CCC1(O)CCC(F)(F)CC1)[C@H]1CC[C@H]2[C@@H]3CC=C4C[C@](O)(C(F)(F)F)CC[C@]4(C)[C@H]3CC[C@]12C [Compound 2392]
[1]
  Emax: 230%
[2]
  Emax: 166%

## C[C@H](CCC(O)C(C)(C)C)[C@H]1CC[C@H]2[C@@H]3CC=C4C[C@](O)(C(F)(F)F)CC[C@]4(C)[C@H]3CC[C@]12C (stereo partly shown) [Compound 2500]
[1]
  Emax: 303%
[2]
  Emax: 300%

## C[C@H](CC[C@](C)(O)C(F)(F)F)[C@H]1CC[C@H]2[C@@H]3CC=C4C[C@](O)(C(F)(F)F)CC[C@]4(C)[C@H]3CC[C@]12C [Compound 3035]
[1]
  Emax: 323%
[2]
  Emax: 611%

## C[C@H](CC[C@@H](O)C(F)(F)F)[C@H]1CC[C@H]2[C@@H]3CC=C4C[C@](O)(C(F)(F)F)CC[C@]4(C)[C@H]3CC[C@]12C [Compound 3149]
[1]
  Emax: 292%
[2]
  Emax: 472%

## C[C@H](CC[C@@H](O)C(C)(C)C)[C@H]1CC[C@H]2[C@@H]3CC=C4C[C@](O)(C(F)(F)F)CC[C@]4(C)[C@H]3CC[C@]12C [Compound 3382]
[1]
  Emax: 309%
[2]
  Emax: 461%

## C[C@H](CC[C@]1(O)CCOC1)[C@H]1CC[C@H]2[C@@H]3CC=C4C[C@](O)(C(F)(F)F)CC[C@]4(C)[C@H]3CC[C@]12C [Compound 3496]
[1]
  Emax: 319%
[2]
  Emax: 369%

## C[C@H](CC[C@H](O)C(C)(C)C)[C@H]1CC[C@H]2[C@@H]3CC=C4C[C@](O)(C(F)(F)F)CC[C@]4(C)[C@H]3CC[C@]12C [Compound 3507]
[1]
  Emax: 166%
[2]
  Emax: 241%

## C[C@H](CC[C@H](O)C(C)(C)C)[C@H]1CC[C@H]2[C@@H]3CC[C@@H]4C[C@](O)(C(F)(F)F)CC[C@]4(C)[C@H]3CC[C@]12C [Compound 3634]
[1]
  Emax: 221%
[2]
  Emax: 379%

## C[C@H](CC[C@@H](O)C(C)(C)C)[C@H]1CC[C@H]2[C@@H]3CC[C@@H]4C[C@](O)(C(F)(F)F)CC[C@]4(C)[C@H]3CC[C@]12C [Compound 3788]
[1]
  Emax: 229%
[2]
  Emax: 410%

## C[C@H](CC[C@]1(O)CC[C@H](C)CC1)[C@H]1CC[C@H]2[C@@H]3CC[C@H]4C[C@](O)(C(F)(F)F)CC[C@]4(C)[C@H]3CC[C@]12C [Compound 3877]
[1]
  Emax: 42.4%
[2]
  Emax: 71.1%

## C[C@H](CCC1(O)CCCCCC1)[C@H]1CC[C@H]2[C@@H]3CC[C@H]4C[C@](O)(C(F)(F)F)CC[C@]4(C)[C@H]3CC[C@]12C [Compound 3983]
[1]
  Emax: 176%
[2]
  Emax: 300%

## C[C@H](CCCC1(O)CC1)[C@H]1CC[C@H]2[C@@H]3CC[C@H]4C[C@](O)(C(F)(F)F)CC[C@]4(C)[C@H]3CC[C@]12C [Compound 4115]
[1]
  Emax: 186%
[2]
  Emax: 195%

## C[C@H](CCC1(O)CCC(C(C)(C)C)CC1)[C@H]1CC[C@H]2[C@@H]3CC[C@H]4C[C@](O)(C(F)(F)F)CC[C@]4(C)[C@H]3CC[C@]12C (stereo partly shown) [Compound 4360]
[1]
  Emax: 38.1%
  EC50: > 10000 nM
[2]
  Emax: 14.6%
  EC50: > 10000 nM

## C[C@H](CCC1(O)CCC(OC(F)F)CC1)[C@H]1CC[C@H]2[C@@H]3CC[C@H]4C[C@](O)(C(F)(F)F)CC[C@]4(C)[C@H]3CC[C@]12C (stereo partly shown) [Compound 5131]
[1]
  Avg Emax 2A (%): 52.9%
  EC50: 33.6 nM
[2]
  Avg Emax 2B (%): 39.0%
  EC50: > 10000 nM

## C[C@H](CCC1(O)CCC(C)(C)CC1)[C@H]1CC[C@H]2[C@@H]3CC[C@@H]4C[C@](O)(C(F)(F)F)CC[C@]4(C)[C@H]3C(=O)C[C@]12C [Compound 5294]
[1]
  Avg Emax 2A (%): 32.4%
  EC50: > 10000 nM
[2]
  Avg Emax 2B (%): 13.9%
  EC50: > 10000 nM

## CC[C@]1(O)CC[C@@]2(C)[C@@H](CC[C@@H]3[C@@H]2CC[C@]2(C)[C@@H]([C@H](C)CC[C@@H](O)c4ccccn4)CC[C@@H]32)C1 [Compound 7030]
[1]
  EC50: > 10000 nM

## CC[C@]1(O)CC[C@@]2(C)[C@@H](CC[C@@H]3[C@@H]2CC[C@]2(C)[C@@H]([C@H](C)CC[C@H](O)c4ccccn4)CC[C@@H]32)C1 [Compound 7032]
[1]
  EC50: > 10000 nM

## CC[C@]1(O)CC[C@@]2(C)C(=CC[C@H]3[C@@H]4CC[C@H]([C@H](C)CC[C@H](O)c5ccc(F)cc5)[C@@]4(C)CC[C@@H]32)C1 [Compound 7146]
[1]
  Emax: 104%
[2]
  Emax: 167%

## CC[C@]1(O)CC[C@@]2(C)C(=CC[C@H]3[C@@H]4CC[C@H]([C@H](C)CC[C@@H](O)c5ccccc5F)[C@@]4(C)CC[C@@H]32)C1 [Compound 7282]
[1]
  Emax: 208%
[2]
  Emax: 290%

## C[C@H](CC[C@@](C)(O)c1ccccc1)[C@H]1CC[C@H]2[C@@H]3CC=C4C[C@@](C)(O)CC[C@]4(C)[C@H]3CC[C@]12C [Compound 7467]
[1]
  Emax: 20.5%
[2]
  Emax: 8.8%
